According to patent publication US20170136008A1, “OXABICYCLOHEPTANES AND OXABICYCLOHEPTENES FOR THE TREATMENT OF OVARIAN CANCER” (priority 2014, published 2017):

Columns and labels:
Assay type in all cases: cell-based, human
[1] = tested on: PEO1-Missense (PEO-1m) ovarian cancer cell line; assay: MTT cytotoxicity assay, PEO1-Missense; conditions: PEO1-Missense; MTT; read-out: IC50, viability of ovarian cancer cell line
Procedure: (§1) SKOV-3 ovarian cancer cells were purchased from American Type Culture Collection (ATCC) (Manassas, Va.). SKOV-3 cells were cultured in McCoy's 5A medium (ATCC, Manassas, Va.) supplemented with 10% fetal bovine serum and 100 units/mL penicillin G sodium, 100 ug/mL streptomycin sulfate, and 292 μg/ml, L-glutamine (BioWhittaker, Wakersville, Md.). Luciferase-expressing cells were generated by infecting SKOV-3 cells with pCLNCX-luciferase retrovirus (SKOV-3-Luc) as previously reported (Wei, B. R. et al. 2009). Human OVCAR-8 ovarian cancer cells were provided by the National Cancer Institute (part of the NCI-60 collection). The PEO1, PEO4, and PEO6 ovarian cancer cell lines have previously been characterized (Langdon, S. P. et al. 1988) and were kindly provided by Dr. Ian Goldlust (National Center for Advancing Translational Sciences, Shady Grove, Md.). […]
(§2) Cell survival was measured by the 3-(4,5-dimethylthiazol-2-yl)-2,5-diphenyltetrazolium bromide (MTT, Invitrogen) assay. […] Absorbance values were determined at […] on a Spectra Max 250 spectrophotometer (Molecular Devices, Sunnyvale, Calif.). […] Cell viability was analyzed via the MTT assay as described above. […]

[2] = tested on: PEO6 ovarian cancer cell line; assay: MTT cytotoxicity assay, PEO6; conditions: read-out: IC50, viability of ovarian cancer cell line
Procedure: as §1, §2

[3] = tested on: OVCAR-8 PP2Ac shRNA-expressing cells; assay: Cell viability (MTT) assay, OVCAR-8 PP2Ac shRNA; conditions: OVCAR-8 PP2Ac shRNA
Procedure: Cell survival was measured by the 3-(4,5-dimethylthiazol-2-yl)-2,5-diphenyltetrazolium bromide (MTT, Invitrogen) assay. Cells were seeded at a density of 5,000 cells per well in 96-well plates and incubated at 37° C. in humidified 5% CO2 for 24 hours. The 50% inhibitory concentration (IC50) values were defined as the drug concentrations required to reduce cellular proliferation to 50% of the untreated control well. […] All MTT assays were carried out according to the manufacturer's instructions (Molecular Probes, Eugen, Oreg.). Absorbance values were determined at […] on a Spectra Max 250 spectrophotometer (Molecular Devices, Sunnyvale, Calif.). All MTT assays were performed in triplicate. […] Cells were treated with both drugs for 72 h. Cell viability was analyzed via the MTT assay as described above. Experiments were performed in triplicate, and the data are presented as a percent mean±SD.
To stably knockdown expression of PP2AC, a pLKO.1-puro plasmid-based […] shRNA targeting the sequence: […] (clone ID:TRCN0000002483, Sigma-Aldrich) was employed (PP2AC-shRNA). Additionally, a non-targeting shRNA plasmid (NT-shRNA) that targets no known human sequence was utilized as a control. […]

SKOV-3 cells = assay: Cell-cycle analysis (FACS), SKOV-3
Procedure: (§3) For cell-cycle analysis, cells were washed with PBS and fixed overnight in ice-cold 70% ethanol and stored at 4° C. Cells were then centrifuged and resuspended in 100 U RNAse (Sigma-Aldrich), and incubated at 37° C. for 20 min. Propidiumidodide solution (Invitrogen, 500 μL, 50 μg/mL in DPBS) was added to each tube and incubated in the dark at 4° C. overnight. Flow cytometry analysis was performed with CellQuestPro and data analysis was completed with ModFit LT. All data is in triplicate and presented as a percent mean±SD.

[4] = tested on: OVCAR-8 ovarian cancer cells; assay: MTT cytotoxicity assay, OVCAR-8; conditions: OVCAR8, read-out: IC50, viability of ovarian cancer cell line
Procedure: as §1, §2

OVCAR-8 cells = assay: Cell-cycle analysis (FACS), OVCAR-8; conditions: cisplatin 5 μM
Procedure: as §3

[5] = tested on: PEO4 ovarian cancer cell line; assay: MTT cytotoxicity assay, PEO4; conditions: PEO4; MTT; read-out: IC50, viability of ovarian cancer cell line
Procedure: as §1, §2

[6] = tested on: PEO1-STOP (PEO-1s) ovarian cancer cell line; assay: MTT cytotoxicity assay, PEO1-STOP; conditions: PEO1-STOP; MTT; read-out: IC50, viability of ovarian cancer cell line
Procedure: as §1, §2

[7] = tested on: SKOV-3 ovarian cancer cells; assay: MTT cytotoxicity assay, SKOV-3; conditions: SK-OV3; MTT; read-out: IC50, viability of ovarian cancer cell line

SMILES: N.N.[Cl][Pt][Cl] [Cisplatin, cis-[PtCl2(NH3)2], reference compound]
- IC50 [1]: 2.1 ± 0.4 µM
- IC50 [2]: 8 ± 1.9 µM
- sensitivity to cisplatin, PP2Ac knockdown compared to non-targeted control [3]: sensitized
- G1 (%) (SKOV-3 cells; 24 h, cisplatin 2 μM): 23.0 ± 0.2%
- G2/M (%) (SKOV-3 cells; 24 h, cisplatin 2 μM): 8.4 ± 0.3%
- S (%) (SKOV-3 cells; 24 h, cisplatin 2 μM): 68.6 ± 0.1%
- G1 (%) (SKOV-3 cells; 24 h, cisplatin 5 μM): 11.6 ± 0.5%
- G2/M (%) (SKOV-3 cells; 24 h, cisplatin 5 μM): 13.5 ± 0.7%
- S (%) (SKOV-3 cells; 24 h, cisplatin 5 μM): 75.2 ± 1.0%
- G1 (%) (SKOV-3 cells; 24 h, cisplatin 18 μM): 49.8 ± 2.3%
- G2/M (%) (SKOV-3 cells; 24 h, cisplatin 18 μM): 16.6 ± 1.3%
- S (%) (SKOV-3 cells; 24 h, cisplatin 18 μM): 33.6 ± 1.8%
- S (%) (SKOV-3 cells; 24 h, cisplatin 18 μM, listed as cisplatin): 33±2%
- G1 (%) (SKOV-3 cells; 24 h, cisplatin 20 μM): 67.7 ± 1.2%
- G2/M (%) (SKOV-3 cells; 24 h, cisplatin 20 μM): 16.3 ± 0.9%
- S (%) (SKOV-3 cells; 24 h, cisplatin 20 μM): 16.0 ± 1.2%
- G1 (%) (SKOV-3 cells; 48 h, cisplatin 18 μM): 40.4 ± 0.8%
- G2/M (%) (SKOV-3 cells; 48 h, cisplatin 18 μM): 21.2 ± 1.0%
- S (%) (SKOV-3 cells; 48 h, cisplatin 18 μM): 38.4 ± 0.5%
- IC50 [4]: 7.2 ± 2.3 µM
- G1 (%) (OVCAR-8 cells; 24 h): 4.6 ± 2.0%
- G2/M (%) (OVCAR-8 cells; 24 h): 13.4 ± 0.6%
- S (%) (OVCAR-8 cells; 24 h): 81.9 ± 1.6%
- G1 (%) (OVCAR-8 cells; 48 h): 0.85 ± 0.3%
- G2/M (%) (OVCAR-8 cells; 48 h): 78.5 ± 2.2%
- S (%) (OVCAR-8 cells; 48 h): 20.7 ± 2.1%
- IC50 [5]: 4.3 ± 1.8 µM
- IC50 [6]: 2.3 ± 0.3 µM
- IC50 [7]: 7.6 ± 1.6 µM
